Results on ten molecules are retold here after patent US7799535B1 (priority 1997, dated 2010).

Test [1] deals with 35S-PrPC (Mesocricetus auratus, UniProt P04273). It counts as biochemical, hamster.
The target of test [2] is Sup35 (Saccharomyces cerevisiae, UniProt P05453). In words: Circular dichroism spectral shifts of mixtures with Sup35. It counts as binding, yeast. The conditions noted are these: LSB1; 1 hr, 1 mM ATP, 37° C. How it is done: Reactions were incubated for 1 hr with 1 mM ATP at 37° C., and transferred to a 0.1 mm path-length cuvette. Spectra were recorded at 25° C. in a Jasco 715 spectropolarimeter (bandwidth 1.0 nm, response time 16 sec, speed 20 nm/min, step resolution 0.2 nm, accumulations 4).

For test [3], the target named is T1, Hsp104 (Saccharomyces cerevisiae, UniProt P31539). It counts as binding, yeast.
The target of test [4] is rPrPβ (Mesocricetus auratus, UniProt P04273). The test is classed as binding, hamster. The conditions noted are these: LSB2; each at 0.5 mg/ml; 37° C. for 1 hr.
The target in test [5] is T1, Hsp104. The test is classed as biochemical, yeast.
Setting [6] is: reactions seeded with partially denatured PrPSc.
Setting [7] is: reactions seeded with untreated PrPSc.

Where two headings read alike, the source gives them in different places.

rPrPβ, sequence (P04273 90-231 limits assumed): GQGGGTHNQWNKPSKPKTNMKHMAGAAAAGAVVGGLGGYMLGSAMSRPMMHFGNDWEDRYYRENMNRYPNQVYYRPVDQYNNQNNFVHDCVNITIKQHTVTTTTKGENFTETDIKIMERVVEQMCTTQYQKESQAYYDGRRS
T1 sequence (P31539 whole entry, looked up): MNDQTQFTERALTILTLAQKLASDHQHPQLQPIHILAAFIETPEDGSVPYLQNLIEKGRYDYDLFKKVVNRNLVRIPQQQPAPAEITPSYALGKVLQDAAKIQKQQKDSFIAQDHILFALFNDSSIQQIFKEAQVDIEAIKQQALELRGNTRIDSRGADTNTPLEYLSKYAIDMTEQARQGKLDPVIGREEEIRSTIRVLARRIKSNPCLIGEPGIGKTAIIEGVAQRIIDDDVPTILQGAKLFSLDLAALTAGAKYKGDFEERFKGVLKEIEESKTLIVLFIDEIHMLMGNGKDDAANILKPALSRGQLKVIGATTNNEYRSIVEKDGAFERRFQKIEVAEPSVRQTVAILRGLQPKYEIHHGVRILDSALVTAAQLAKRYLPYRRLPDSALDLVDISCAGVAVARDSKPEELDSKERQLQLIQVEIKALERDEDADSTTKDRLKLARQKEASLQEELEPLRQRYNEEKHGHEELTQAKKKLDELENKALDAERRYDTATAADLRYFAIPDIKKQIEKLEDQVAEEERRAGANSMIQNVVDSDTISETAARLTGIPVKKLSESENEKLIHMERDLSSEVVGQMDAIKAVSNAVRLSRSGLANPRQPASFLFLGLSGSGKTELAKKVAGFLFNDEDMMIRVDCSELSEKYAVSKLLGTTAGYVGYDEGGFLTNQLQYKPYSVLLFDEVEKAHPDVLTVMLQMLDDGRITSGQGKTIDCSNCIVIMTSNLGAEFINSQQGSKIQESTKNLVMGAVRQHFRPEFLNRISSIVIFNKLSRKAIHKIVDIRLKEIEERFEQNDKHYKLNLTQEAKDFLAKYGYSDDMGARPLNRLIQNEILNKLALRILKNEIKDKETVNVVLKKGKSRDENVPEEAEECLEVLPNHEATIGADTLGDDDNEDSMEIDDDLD
35S-PrPC, sequence (P04273 23-231 limits assumed): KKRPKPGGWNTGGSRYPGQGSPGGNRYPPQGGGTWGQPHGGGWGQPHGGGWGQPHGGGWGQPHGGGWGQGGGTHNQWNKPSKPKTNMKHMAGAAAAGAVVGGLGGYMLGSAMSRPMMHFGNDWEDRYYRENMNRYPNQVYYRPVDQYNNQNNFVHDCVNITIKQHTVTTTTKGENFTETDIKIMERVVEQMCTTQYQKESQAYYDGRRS
Sup35, sequence (P05453 whole entry): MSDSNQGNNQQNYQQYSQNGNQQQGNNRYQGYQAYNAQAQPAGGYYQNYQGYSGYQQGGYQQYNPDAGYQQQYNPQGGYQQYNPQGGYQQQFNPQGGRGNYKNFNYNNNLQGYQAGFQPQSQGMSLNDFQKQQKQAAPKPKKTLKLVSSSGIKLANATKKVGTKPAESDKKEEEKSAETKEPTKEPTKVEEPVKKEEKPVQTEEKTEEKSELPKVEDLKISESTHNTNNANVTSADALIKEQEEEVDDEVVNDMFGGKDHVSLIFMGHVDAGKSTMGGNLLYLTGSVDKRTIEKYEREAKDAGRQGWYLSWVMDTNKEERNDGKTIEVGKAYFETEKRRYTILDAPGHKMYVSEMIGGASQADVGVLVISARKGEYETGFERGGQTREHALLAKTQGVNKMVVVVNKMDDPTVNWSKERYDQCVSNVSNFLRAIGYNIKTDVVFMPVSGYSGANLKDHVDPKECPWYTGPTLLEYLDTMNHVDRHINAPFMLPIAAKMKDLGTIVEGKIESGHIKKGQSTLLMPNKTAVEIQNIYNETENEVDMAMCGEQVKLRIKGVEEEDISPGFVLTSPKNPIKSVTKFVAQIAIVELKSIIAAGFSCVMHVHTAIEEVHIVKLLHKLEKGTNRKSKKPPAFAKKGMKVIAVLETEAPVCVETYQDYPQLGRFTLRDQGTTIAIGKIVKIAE

For `OC[C@H]1O[C@@](CO)(O[C@H]2O[C@H](CO)[C@@H](O)[C@H](O)[C@H]2O)[C@@H](O)[C@@H]1O` [sucrose], the “effect of chemical chaperones on 35S-PrPC conversion” value (“effect of chemical chaperones” for short) is reported as “inhibited conversion” in test [1] (setting [6]), “None of the compounds tested affected” in test [1] (setting [7]) and “None of the compounds tested affected” in test [1] (reactions without PrPSc).

For the molecule α-2 macroglobulin, in test [2], the “CD spectrum of mixture with Sup35 compared with predicted spectrum” value is given as “observed spectra matched the predicted spectra”. Further, in test [3], the “CD spectrum of mixture with Hsp104 compared with predicted spectrum” value was “observed spectra matched the predicted spectra”. Also, the “CD spectrum of mixture with rPrPβ compared with predicted spectrum” value in test [4] is “much smaller”.

In the case of `OC[C@H]1O[C@H](O[C@H]2O[C@H](CO)[C@@H](O)[C@H](O)[C@H]2O)[C@H](O)[C@@H](O)[C@@H]1O` [trehalose], the entries for the “effect of chemical chaperones” value in test [1] (setting [6]), in test [1] (setting [7]) and in test [1] (reactions without PrPSc) were “inhibited conversion”, “None of the compounds tested affected” and “None of the compounds tested affected”, respectively.

For `C[S+](C)[O-]` [DMSO, dimethyl sulfoxide], in test [1] (partially denatured PrPSc, higher levels (up to 30%)), the effect on conversion result is given as “virtually eliminated conversion”. Besides, the stimulation of conversion in test [1] (partially denatured PrPSc, intermediate levels (1-3%)) was 2-3 fold. In addition, the “effect of chemical chaperones” value in test [1] (setting [7]) and in test [1] (reactions without PrPSc) was “None of the compounds tested affected” throughout.

For the molecule β-galactosidase, the “CD spectrum of mixture with rPrPβ compared with predicted spectrum” value in test [4] is “much smaller”.

`Nc1ncnc2c1ncn2[C@@H]1O[C@H](COP(=O)(O)OP(=O)(O)OP(=O)(O)O)[C@@H](O)[C@H]1O` [ATP]: the “rate of change in CD spectrum with Sup35 and Hsp104” value in test [3] is “markedly increased the rate”.

Turning to “β-amyloid 1-40: a less amyloidogenic derivative of β-amyloid”, in test [5], the “effect on the ATPase activity of Hsp104 (in words)” value was “Less inhibition”.

In the case of α-lactalbumin, the “CD spectrum of mixture with Sup35 compared with predicted spectrum” value in test [2] is given as “observed spectra matched the predicted spectra”. The “CD spectrum of mixture with Hsp104 compared with predicted spectrum” value in test [3] is reported as “observed spectra matched the predicted spectra”. The “CD spectrum of mixture with rPrPβ compared with predicted spectrum” value in test [4] was “much smaller”.

For “β-amyloid 1-42: amyloidogenic peptide, fragment found in neural plaques associated with Alzheimer's disease”, in test [5], the “effect on the ATPase activity of Hsp104 (in words)” value is listed as “inhibited”.

For the molecule `OCC(O)CO` [glycerol], the “effect of chemical chaperones” value in test [1] (setting [6]) was “no effect”; in test [1] (setting [7]), “None of the compounds tested affected”; in test [1] (reactions without PrPSc), “None of the compounds tested affected”.
